Values quoted from earlier work in patent US8067542B1 (priority 2003, dated 2011).

System: Verticillium dahliae
Settings: AlfAFP expressed in potato (Gao et al, 2000); cited from earlier work

Substance: Alf - wt: native alfalfa antifungal protein (plant defensin from Medicago sativa seeds), SEQ ID NO:2 (RTCENLADKYRGPCFSGCDTHCTTKENAVSGRCRDDFRCWCTKRC; listed as Medicago sativa)
- resistance to early dying disease in potato: confer resistance to early dying disease
